Drawing on publication doi:10.1101/2025.01.28.635346v1 (bioRxiv, 2025), this text covers EC50, Emax and IC50 for 2 molecules.

Holding throughout (settings): for Emax: read-out: Max Response
One assay concerns the target HTR1B (Homo sapiens, UniProt P28222). Nature of the assay: Safetyscan47 GPCR cAMP, Agonist. It counts as cell-based.
For a further assay, the target named is T1, CCKAR (Homo sapiens, UniProt P32238).
T1 sequence (P32238 1-428): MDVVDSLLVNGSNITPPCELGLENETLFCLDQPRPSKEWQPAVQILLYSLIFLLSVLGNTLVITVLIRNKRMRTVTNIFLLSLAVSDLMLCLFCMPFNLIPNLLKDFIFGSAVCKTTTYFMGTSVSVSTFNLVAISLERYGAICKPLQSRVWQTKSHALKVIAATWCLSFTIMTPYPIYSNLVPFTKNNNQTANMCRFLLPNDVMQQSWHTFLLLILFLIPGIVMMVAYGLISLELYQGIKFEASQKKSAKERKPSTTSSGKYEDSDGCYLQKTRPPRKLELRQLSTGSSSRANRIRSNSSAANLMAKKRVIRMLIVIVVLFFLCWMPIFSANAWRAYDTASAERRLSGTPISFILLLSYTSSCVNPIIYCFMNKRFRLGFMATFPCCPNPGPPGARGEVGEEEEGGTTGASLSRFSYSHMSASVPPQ
Nature of the assay: Safetyscan47 GPCR Calcium Flux, Antagonist. It counts as cell-based.

Another assay deals with AVPR1A (Homo sapiens, UniProt P37288). Nature of the assay: Safetyscan47 GPCR Calcium Flux, Agonist. Format: cell-based. (Calcium assays in cells follow changes in intracellular calcium, usually with a dye or a luminescent sensor.)
Sequence of AVPR1A (P37288 whole entry): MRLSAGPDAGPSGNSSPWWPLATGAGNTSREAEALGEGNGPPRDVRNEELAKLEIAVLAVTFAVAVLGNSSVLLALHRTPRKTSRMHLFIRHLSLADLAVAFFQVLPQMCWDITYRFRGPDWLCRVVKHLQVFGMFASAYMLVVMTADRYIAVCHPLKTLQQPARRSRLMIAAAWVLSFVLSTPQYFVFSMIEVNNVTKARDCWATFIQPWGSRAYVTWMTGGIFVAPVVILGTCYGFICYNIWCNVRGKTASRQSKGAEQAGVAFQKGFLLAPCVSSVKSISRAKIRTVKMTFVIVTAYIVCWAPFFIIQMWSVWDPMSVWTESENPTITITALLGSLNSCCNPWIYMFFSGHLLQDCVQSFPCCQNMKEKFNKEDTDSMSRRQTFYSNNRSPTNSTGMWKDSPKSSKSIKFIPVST
The next assay addresses T2, HTR1A (Homo sapiens, UniProt P08908).
T2 sequence (P08908 1-422): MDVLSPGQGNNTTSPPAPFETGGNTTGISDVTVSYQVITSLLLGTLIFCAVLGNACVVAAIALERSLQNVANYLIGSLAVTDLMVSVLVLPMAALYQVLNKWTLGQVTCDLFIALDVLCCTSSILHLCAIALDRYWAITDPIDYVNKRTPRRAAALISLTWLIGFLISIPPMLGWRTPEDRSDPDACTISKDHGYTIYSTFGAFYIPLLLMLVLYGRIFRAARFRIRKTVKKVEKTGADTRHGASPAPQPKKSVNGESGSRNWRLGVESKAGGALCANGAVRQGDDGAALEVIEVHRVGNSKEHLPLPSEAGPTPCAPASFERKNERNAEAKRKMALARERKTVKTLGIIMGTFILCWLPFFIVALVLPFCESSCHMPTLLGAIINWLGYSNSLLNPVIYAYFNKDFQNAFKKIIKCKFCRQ
The assay can be described thus: Safetyscan47 GPCR cAMP, Antagonist. It counts as cell-based.

In a further assay the target is ADRB2 (Homo sapiens, UniProt P07550). The assay can be described thus: Safetyscan47 GPCR cAMP, Agonist. It counts as cell-based.
Sequence of ADRB2 (P07550 whole entry): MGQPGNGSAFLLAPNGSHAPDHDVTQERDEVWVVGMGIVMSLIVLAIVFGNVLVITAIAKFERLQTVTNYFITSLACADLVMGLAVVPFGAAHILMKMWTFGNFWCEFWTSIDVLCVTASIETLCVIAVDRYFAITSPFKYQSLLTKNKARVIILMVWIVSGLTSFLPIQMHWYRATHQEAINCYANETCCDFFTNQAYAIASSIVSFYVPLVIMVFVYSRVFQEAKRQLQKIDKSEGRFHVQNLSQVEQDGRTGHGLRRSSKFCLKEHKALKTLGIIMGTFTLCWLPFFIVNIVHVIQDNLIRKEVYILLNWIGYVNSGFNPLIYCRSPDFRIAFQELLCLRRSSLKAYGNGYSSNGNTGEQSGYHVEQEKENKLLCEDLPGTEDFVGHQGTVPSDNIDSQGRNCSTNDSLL
For a further assay, the target named is T3, ADRA1A (Homo sapiens, UniProt P35348).
T3 sequence (P35348 1-466): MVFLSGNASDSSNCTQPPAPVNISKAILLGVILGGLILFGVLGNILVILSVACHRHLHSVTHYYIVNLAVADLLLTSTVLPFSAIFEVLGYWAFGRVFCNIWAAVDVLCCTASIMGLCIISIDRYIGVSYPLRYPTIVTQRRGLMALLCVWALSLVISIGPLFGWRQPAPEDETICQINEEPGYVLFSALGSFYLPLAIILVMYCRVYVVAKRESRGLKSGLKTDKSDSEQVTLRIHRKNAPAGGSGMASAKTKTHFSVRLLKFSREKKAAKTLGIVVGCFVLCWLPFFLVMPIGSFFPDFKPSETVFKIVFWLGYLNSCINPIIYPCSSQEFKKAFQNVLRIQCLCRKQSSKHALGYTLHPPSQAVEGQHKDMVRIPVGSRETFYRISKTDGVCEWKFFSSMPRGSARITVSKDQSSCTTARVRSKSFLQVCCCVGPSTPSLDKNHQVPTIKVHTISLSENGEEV
The assay can be described thus: Safetyscan47 GPCR Calcium Flux, Agonist. Format: cell-based.

The target of another assay is T4, COX2 (Homo sapiens, UniProt P35354).
T4 sequence (P35354 18-604): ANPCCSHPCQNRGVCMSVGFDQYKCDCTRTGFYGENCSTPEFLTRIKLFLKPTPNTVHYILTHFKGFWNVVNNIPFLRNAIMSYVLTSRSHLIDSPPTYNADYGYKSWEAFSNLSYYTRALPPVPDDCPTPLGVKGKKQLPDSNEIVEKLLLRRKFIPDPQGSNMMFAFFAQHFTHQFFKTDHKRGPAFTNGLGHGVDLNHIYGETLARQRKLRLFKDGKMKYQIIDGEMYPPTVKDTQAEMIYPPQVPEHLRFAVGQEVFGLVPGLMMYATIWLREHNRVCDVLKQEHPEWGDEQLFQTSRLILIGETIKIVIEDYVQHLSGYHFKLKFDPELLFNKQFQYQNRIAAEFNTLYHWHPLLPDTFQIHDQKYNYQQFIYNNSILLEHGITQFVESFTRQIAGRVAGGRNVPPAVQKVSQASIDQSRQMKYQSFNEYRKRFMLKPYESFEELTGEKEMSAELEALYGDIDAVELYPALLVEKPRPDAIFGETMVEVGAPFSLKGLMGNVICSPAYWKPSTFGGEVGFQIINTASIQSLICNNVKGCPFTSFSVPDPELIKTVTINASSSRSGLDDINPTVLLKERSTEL
The assay can be described thus: Safetyscan47 Non-Kinase Enzymes Enzymatic, Inhibitor. Format: biochemical.

The next assay deals with T5, ADRA2A (Homo sapiens, UniProt P08913).
T5 sequence (P08913 1-465): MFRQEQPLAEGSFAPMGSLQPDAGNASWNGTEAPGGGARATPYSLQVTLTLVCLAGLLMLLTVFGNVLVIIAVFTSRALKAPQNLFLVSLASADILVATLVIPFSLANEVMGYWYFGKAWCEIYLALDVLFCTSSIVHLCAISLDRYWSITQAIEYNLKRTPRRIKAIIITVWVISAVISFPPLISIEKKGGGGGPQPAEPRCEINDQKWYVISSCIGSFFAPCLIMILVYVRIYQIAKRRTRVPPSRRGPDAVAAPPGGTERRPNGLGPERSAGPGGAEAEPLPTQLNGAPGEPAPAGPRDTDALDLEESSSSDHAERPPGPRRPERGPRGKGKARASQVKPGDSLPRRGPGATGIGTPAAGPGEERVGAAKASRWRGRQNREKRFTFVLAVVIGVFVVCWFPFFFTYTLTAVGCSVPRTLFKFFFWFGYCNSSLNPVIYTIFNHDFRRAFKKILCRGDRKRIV
Nature of the assay: Safetyscan47 GPCR cAMP, Antagonist. It counts as cell-based.

The target in another assay is OPRK1 (Homo sapiens, UniProt P41145). The assay can be described thus: Safetyscan47 GPCR cAMP, Antagonist. Format: cell-based.
Sequence of OPRK1 (P41145 whole entry): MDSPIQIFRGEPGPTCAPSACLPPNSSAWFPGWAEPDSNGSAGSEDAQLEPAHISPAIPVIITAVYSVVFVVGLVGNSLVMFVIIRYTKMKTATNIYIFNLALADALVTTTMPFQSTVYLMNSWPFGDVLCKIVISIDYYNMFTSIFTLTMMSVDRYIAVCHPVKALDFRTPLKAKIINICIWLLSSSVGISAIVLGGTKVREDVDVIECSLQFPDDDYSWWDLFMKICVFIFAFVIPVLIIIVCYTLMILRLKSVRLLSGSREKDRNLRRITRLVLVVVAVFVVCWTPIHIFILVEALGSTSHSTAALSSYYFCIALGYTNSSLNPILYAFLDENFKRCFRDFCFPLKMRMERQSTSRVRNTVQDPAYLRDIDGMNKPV

Bridge positions count the residues as written; N and C are the ends. Side chains are listed from the residue outwards. Peptide text beside a SMILES is read from it. * marks the point of attachment. Butanoyl(4-(4-I-phenyl)) = O=C(CCCc1ccc(I)cc1)*; PEG2 = NCCOCCOCCC(=O)O

Sequence of HTR1B (P28222 whole entry): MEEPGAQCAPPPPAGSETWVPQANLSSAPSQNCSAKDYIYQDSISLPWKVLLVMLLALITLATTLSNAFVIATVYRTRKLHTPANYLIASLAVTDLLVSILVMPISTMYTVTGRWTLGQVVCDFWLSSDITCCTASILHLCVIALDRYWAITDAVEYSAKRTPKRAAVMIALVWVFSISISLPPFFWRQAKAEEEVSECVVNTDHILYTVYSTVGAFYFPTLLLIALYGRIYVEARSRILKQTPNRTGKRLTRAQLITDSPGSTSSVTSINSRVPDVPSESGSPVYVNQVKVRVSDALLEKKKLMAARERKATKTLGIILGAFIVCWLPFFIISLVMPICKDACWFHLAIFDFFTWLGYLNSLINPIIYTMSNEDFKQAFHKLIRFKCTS

For orientation: EC50 means the midpoint of the concentration-response curve. As usually defined, the IC50 is the concentration at which inhibition is half-maximal. Regarding `CC[C@H](C)[C@H](NC(=O)[C@H](CC(C)C)NC(=O)[C@H](CC(=O)O)NC(=O)CNC(=O)[C@H](CCCNC(=N)N)NC(=O)[C@@H](NC(=O)[C@H](Cc1ccccc1)NC(=O)[C@H](Cc1ccc(O)cc1)NC(=O)[C@@H]1CCC(=O)NCC(=O)NCC(=O)N[C@@H](CCCNC(=N)N)C(=O)NCC(=O)N[C@@H](Cc2c[nH]cn2)C(=O)N[C@@H](C(C)C)C(=O)N2CCC[C@H]2C(=O)N1)C(C)C)C(=O)N[C@@H](CO)C(=O)N[C@@H](Cc1ccccc1)C(=O)N[C@@H](Cc1ccc(O)cc1)C(=O)N[C@@H](CCCCN)C(=O)O` [lassotide 36] (GGRGHVPEYFVRGDLISFYK-OH; lactam N-8), the EC50 on HTR1B, on AVPR1A, on ADRB2 and on ADRA1A was more than 45 µM throughout. For the same molecule, the Emax on HTR1B came out at 2.61%; on CCKAR it was 3.61%; at AVPR1A it was 1.03%; at HTR1A, 0%; at ADRB2 it was 0%; at ADRA1A, 2.01%. For the same molecule, the Emax on COX2 is 26.5%; at ADRA2A, 0%; at OPRK1 it was 0%. In addition, the half-maximal inhibitory concentration (IC50) at CCKAR, against HTR1A, against COX2, against ADRA2A and on OPRK1 was more than 45 µM throughout.

Regarding `CC[C@H](C)[C@H](NC(=O)[C@H](CC(C)C)NC(=O)[C@H](CC(=O)O)NC(=O)CNC(=O)[C@H](CCCNC(=N)N)NC(=O)[C@@H](NC(=O)[C@H](Cc1ccccc1)NC(=O)[C@H](Cc1ccc(O)cc1)NC(=O)[C@@H]1CCC(=O)NCC(=O)NCC(=O)N[C@@H](CCCNC(=N)N)C(=O)NCC(=O)N[C@@H](Cc2c[nH]cn2)C(=O)N[C@@H](C(C)C)C(=O)N2CCC[C@H]2C(=O)N1)C(C)C)C(=O)N[C@@H](CO)C(=O)N[C@@H](Cc1ccccc1)C(=O)N[C@@H](Cc1ccc(O)cc1)C(=O)N[C@@H](CCCCNC(=O)CCOCCOCCNC(=O)CCCc1ccc(I)cc1)C(=O)O` [lassotide 47] (GGRGHVPEYFVRGDLISFYK([PEG2-Butanoyl(4-(4-I-phenyl))])-OH; lactam N-8), the concentration for a half-maximal effect (EC50) on HTR1B, at AVPR1A, at ADRB2 and on ADRA1A was more than 45 µM in each case. Further, the Emax at HTR1B was 22.4%; at CCKAR it was 3.35%; at AVPR1A it was 8.02%; at HTR1A, 0%; on ADRB2, 0%; at ADRA1A it was 0.52%. Further, the Emax turned out to be 18.7% on COX2, 0% at ADRA2A and 0% on OPRK1. Moreover, the IC50 on CCKAR, against HTR1A, against COX2, on ADRA2A and against OPRK1 was more than 45 µM in each case.
